{
  "source": "EPA's ToxValDB 9.5 (doi:10.2903/j.efsa.2016.4605)",
  "key": {"Rattus norvegicus": {"test_system": "Rattus norvegicus", "details": "for LD50: acute, oral, mortality"}, "Daphnia magna": {"test_system": "Daphnia magna", "details": "chronic/long-term"}, "Folsomia candida": {"test_system": "Folsomia candida", "details": "chronic/long-term; reproduction"}, "Hypoaspis aculeifer": {"test_system": "Hypoaspis aculeifer", "details": "chronic/long-term; reproduction"}, "Mus musculus": {"test_system": "Mus musculus", "details": "chronic; histopathology: neoplastic"}, "Oncorhynchus mykiss": {"test_system": "Oncorhynchus mykiss", "details": "for LC50: acute, mortality; for NOEC: chronic/long-term"}, "Tagia sp.": {"test_system": "Tagia sp.", "details": "chronic/long-term; reproduction"}, "Apis mellifera": {"test_system": "Apis mellifera", "details": "acute, mortality"}, "Typhlodromus pyri": {"test_system": "Typhlodromus pyri", "assay": "LR50; higher = less toxic", "details": "not reported; mortality"}, "[1]": {"details": "duration: 21 days, reproduction"}},
  "data": [
    {"smiles": "CC1CN2C(=S)SSC2=N1", "note": "(centres undefined) [6-Methyl-5,6-dihydroimidazo[2,1-C][1,2,4]dithiazole-3-thione]", "values": [
      {"measurement": "NOAEL", "setting": "Rattus norvegicus; short-term, duration: 28 days, neurology", "value": 0.466, "unit": "mg/kg-day"}
    ]},
    {"smiles": "CC1CNC(=S)N1", "note": "(centres undefined) [4-Methylimidazolidine-2-thione]", "values": [
      {"measurement": "NOEC", "setting": "Daphnia magna; [1]", "value": 3.2, "unit": "mg/L"},
      {"measurement": "NOEC", "setting": "Folsomia candida", "value": 9, "unit": "mg/kg"},
      {"measurement": "NOEC", "setting": "Hypoaspis aculeifer", "value": "≥ 100", "unit": "mg/kg"},
      {"measurement": "NOAEL", "setting": "Mus musculus", "value": 0.16, "unit": "mg/kg-day"},
      {"measurement": "LC50", "setting": "Oncorhynchus mykiss", "value": "> 100", "unit": "µg/mL"},
      {"measurement": "NOEC", "setting": "Oncorhynchus mykiss; duration: 28 days, growth", "value": 102, "unit": "mg/L"},
      {"measurement": "LD50", "setting": "Rattus norvegicus", "value": 795, "unit": "mg/kg-day"},
      {"measurement": "NOEC", "setting": "Tagia sp.", "value": 178, "unit": "mg/kg"}
    ]},
    {"smiles": "CC1CNC(=O)N1", "note": "(centres undefined) [4-Methyl-2-imidazolidinone]", "values": [
      {"measurement": "NOEC", "setting": "Daphnia magna; [1]", "value": 100, "unit": "mg/L"},
      {"measurement": "NOEC", "setting": "Folsomia candida", "value": 90, "unit": "mg/kg"},
      {"measurement": "NOEC", "setting": "Hypoaspis aculeifer", "value": "≥ 100", "unit": "mg/kg"},
      {"measurement": "NOAEL", "setting": "Mus musculus", "value": 8, "unit": "mg/kg-day"},
      {"measurement": "LC50", "setting": "Oncorhynchus mykiss; duration: 96 hours", "value": "> 100", "unit": "µg/mL"},
      {"measurement": "NOEC", "setting": "Oncorhynchus mykiss; duration: 63 days, growth", "value": 2, "unit": "mg/L"},
      {"measurement": "NOEC", "setting": "Tagia sp.", "value": "≥ 1000", "unit": "mg/kg"}
    ]},
    {"smiles": "CC(CNC(=S)[S-])NC(=S)[S-].[Zn+2]", "note": "(centres undefined) [Propineb]", "values": [
      {"measurement": "LD50", "setting": "Apis mellifera; dermal", "value": "> 100", "unit": "µg/piece"},
      {"measurement": "LD50", "setting": "Apis mellifera; oral, unspecified", "value": "> 100", "unit": "µg/piece"},
      {"measurement": "LD50", "setting": "Coturnix japonica; acute, oral, mortality", "value": "> 5000", "unit": "mg/kg-day"},
      {"measurement": "NOAEL", "setting": "Coturnix japonica; chronic", "value": 64.7, "unit": "mg/kg-day"},
      {"measurement": "NOEC", "setting": "Daphnia magna; [1]", "value": 0.015, "unit": "mg/L"},
      {"measurement": "NOEC", "setting": "Daphnia magna; duration: 35 days, other", "value": 0.48, "unit": "mg/L"},
      {"measurement": "NOEC", "setting": "Folsomia candida", "value": 39.1, "unit": "mg/kg"},
      {"measurement": "NOEC", "setting": "Hypoaspis aculeifer", "value": 39.1, "unit": "mg/kg"},
      {"measurement": "LC50", "setting": "Oncorhynchus mykiss; duration: 96 hours", "value": 0.329, "unit": "µg/mL"},
      {"measurement": "NOEC", "setting": "Oncorhynchus mykiss; duration: 28 days, other", "value": "> 0.6", "unit": "mg/L"},
      {"measurement": "NOEC", "setting": "Oncorhynchus mykiss; growth", "value": 0.0823, "unit": "mg/L"},
      {"measurement": "LD50", "setting": "Rattus norvegicus", "value": "> 2000", "unit": "mg/kg-day"},
      {"measurement": "NOAEL", "setting": "Rattus norvegicus; chronic, M, organ weight", "value": 2.5, "unit": "mg/kg-day"},
      {"measurement": "NOAEL", "setting": "Rattus norvegicus; developmental, development", "value": 3, "unit": "mg/kg-day"},
      {"measurement": "NOAEL", "setting": "Rattus norvegicus; reproduction developmental, body weight", "value": 3, "unit": "mg/kg-day"},
      {"measurement": "NOAEL", "setting": "Rattus norvegicus; subchronic, F, body weight", "value": 9.36, "unit": "mg/kg-day"},
      {"measurement": "NOEC", "setting": "Tagia sp.", "value": 38.7, "unit": "mg/kg"},
      {"measurement": "LR50", "setting": "Typhlodromus pyri", "value": 5.6, "unit": "g/ha"}
    ]}
  ]
}
